Data set [1] deals with swine. The data set is described as follows: Pharmacodynamic response in dosed swine. It counts as in vivo.
Details of data set [2]: species or system swine (female Yorkshire). As to conditions: in vivo.
The conditions of data set [3]: cited from earlier work.
Data set [4] in a line: In vivo pharmacokinetics of insulin and GLP-1 analog in swine. As to conditions: removed from dataset.
Setting [5] is: 0.24 mg, injection (intramuscular) and L-SOMA groups.

Regarding `CNC[C@H](O)c1ccc(O)c(O)c1` [epinephrine], in data set [1] (setting [5]), the blood glucose response entry was “rapid rise” and the heart rate response result was “rapid rise in heart rate”. Also, the “systemic uptake after endoscopic gavage (negative control)” value in data set [2] was “negligible uptake”.
GLP-1: the “ability to traverse the stomach lining for systemic uptake” value in data set [3] (in vivo) is given as “severely limited ability”. Moreover, the “bioavailability when using a permeation enhancer” value in data set [3] (not told) is given as “approximately 1%”.
In the case of adalimumab, the “systemic uptake after endoscopic gavage (negative control)” value in data set [2] is listed as “negligible uptake”.
Turning to recombinant human insulin, in data set [4] (one L-SOMA-dosed swine, possible sample contamination), the “plasma insulin level at t=0” value was determined as 41.6 pM. This compound also displayed a peak plasma level in data set [4] (same single L-SOMA-dosed swine, at 45 minutes) of 136 pM. Moreover, the plasma glucose response result in data set [1] (4 IU, injection and L-SOMA groups) is listed as “immediate hypoglycemic onset”.
In the case of semaglutide, in data set [3] (in vivo, po), the oral bioavailability entry was “approximately 1%”.

The record behind these values is PMC8766875 (Nature biotechnology, 2021).
